# Source: patent US8420646B2, “Tricyclic tetrahydroquinoline antibacterial agents” (PAH P&U LLC, priority 2002, dated 2013)
# Values joined by “and” are separate entries in the source; they are usually repeats but may differ in a detail not shown here. Identical values can stand only once.
# Biological target: T1, E. coli DNA gyrase (Escherichia coli, UniProt P0AES4+P0AES6)
# T1 construct: made in house; host or cells: strains overexpressing each subunit individually
# Assay: In Vitro DNA Gyrase Assay (supercoiling of relaxed pBR322, EtBr-stained agarose gel)
# Assay type: biochemical
# Details: Gyrase IC50 (μM), E. coli DNA gyrase holoenzyme A2B2; substrate relaxed pBR322; relaxed vs. supercoiled DNA on 0.8% agarose gel
# Excerpt: DNA gyrase is a bacterial topoisomerase that introduces negative supercoils into DNA. The DNA gyrase assay measures the degree of enzymatic activity by quantitating relative amounts of relaxed vs. supercoiled DNA on an EtBr-stained 0.8% agarose gel. The substrate is relaxed pBR322. The enzyme is E. coli DNA gyrase which is purified from strains overexpressing each of the subunits individually (there are two: A and B and the holoenzyme consists of the heterodimer A2B2). See for example, Hallett et al. Cloning of the DNA gyrase genes under tac promoter control: overproduction of the gyrase A and B proteins. Gene 93: 139-142 (1990); Simon et al. Biochemical complementation studies in vitro of gyrase subunits from different species. FEBS Lett 373:88-92 (1995); and O'Dea et al. Mutations in the B subunit of Escherichia coli DNA gyrase that affect ATP-dependent reactions. J. Biol Chem 1996 271:9723-9 (1996).
# In the below chart, racemic mixtures are denoted with (±)- and enantiomerically enriched samples are denoted by (−)- or (+)-.
# T1 sequence (P0AES4 whole entry, one chain of several): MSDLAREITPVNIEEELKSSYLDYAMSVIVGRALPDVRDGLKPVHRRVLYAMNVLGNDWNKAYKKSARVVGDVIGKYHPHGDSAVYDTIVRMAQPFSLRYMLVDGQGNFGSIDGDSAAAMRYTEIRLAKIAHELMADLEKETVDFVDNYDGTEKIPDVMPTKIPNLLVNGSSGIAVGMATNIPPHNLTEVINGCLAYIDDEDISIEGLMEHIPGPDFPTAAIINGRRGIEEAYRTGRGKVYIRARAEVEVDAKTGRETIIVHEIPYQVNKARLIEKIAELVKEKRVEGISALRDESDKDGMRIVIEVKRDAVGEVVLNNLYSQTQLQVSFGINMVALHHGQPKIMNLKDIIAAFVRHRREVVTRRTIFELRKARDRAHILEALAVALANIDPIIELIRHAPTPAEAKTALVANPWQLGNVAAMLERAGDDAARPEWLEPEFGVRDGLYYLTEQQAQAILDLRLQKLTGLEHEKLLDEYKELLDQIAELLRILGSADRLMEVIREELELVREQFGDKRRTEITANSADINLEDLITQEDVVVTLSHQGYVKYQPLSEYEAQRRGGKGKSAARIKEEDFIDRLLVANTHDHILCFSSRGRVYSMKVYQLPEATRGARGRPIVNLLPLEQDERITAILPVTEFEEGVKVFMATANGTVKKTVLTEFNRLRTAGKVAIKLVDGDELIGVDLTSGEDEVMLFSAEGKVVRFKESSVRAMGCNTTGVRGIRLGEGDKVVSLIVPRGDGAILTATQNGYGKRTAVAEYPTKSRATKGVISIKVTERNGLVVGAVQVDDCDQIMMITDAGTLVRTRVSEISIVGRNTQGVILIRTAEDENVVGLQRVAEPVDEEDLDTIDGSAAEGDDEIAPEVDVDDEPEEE
row,Structure (SMILES),IC50
1,C[C@@H]1OCCN2c3ccc([N+](=O)[O-])cc3CC3(C(=O)NC(=O)NC3=O)[C@@H]12 (stereo in doubt) [Example 25],18.2 µM and 32 µM
2,C[C@@H]1CN2c3ccc([N+](=O)[O-])cc3CC3(C(=O)NC(=O)NC3=O)[C@@H]2[C@@H](C)O1 (racemic) [Example 1],19 µM
3,"C[C@@H]1CN2c3ccc(C#N)cc3CC3(C(=O)NC(=O)NC3=O)[C@H]2[C@H](C)O1 [Example 6, 1,1′,2,3′4,4′,4a, 6′-Octrahydro-2,4′,6′-trioxospiro[[1,4]oxazino[4,3-a]quinoline-5(6H), 5′(2′H)-pyrimidine]-8-carbonitrile]",13.8 µM
4,"C[C@@H]1CN2c3ccccc3CC3(C(=O)NC(=O)NC3=O)[C@H]2[C@H](C)O1 (racemic) [Example 2, 1,2,4,4a-Tetrahydro-cis-2,4-dimethylspiro[[1,4]oxazino[4,3-a]quinoline-5(6H), 5′(2′H)-pyrimidine]-2′,4′,6′(1′H,3′H)-trione]",45.6 µM
5,"C[C@@H]1CN2c3ccc(F)cc3CC3(C(=O)NC(=O)NC3=O)[C@H]2[C@H](C)O1 (racemic) [Example 4, 8-Fluoro-1,2,4,4a-tetrahydro-cis-2,4-dimethylspiro[[1,4]oxazino[4,3-a]quinoline-5(6H), 5′(2′H)-pyrimidine]-2′,4′,6′(1′H,3′H)-trione]",70.2 µM
6,C[C@@H]1CN2c3ccc([N+](=O)[O-])cc3CC3(C(=O)NC(=O)NC3=O)[C@H]2[C@H](C)O1 (stereo in doubt) [Example 1],11.8 µM and 6.1 µM
7,"COC(=O)c1ccc2c(c1)CC1(C(=O)NC(=O)NC1=O)[C@H]1[C@H](C)O[C@H](C)CN21 (relative stereo) [Example 43, rel-Methyl (2R,4S,4aS)1,1′-2,3′,4,4a,6′-Octahydro-2,4-dimethyl-2′,4′,6′-trioxospiro[[1,4]oxazino[4,3-a]quinoline-5(6H),5′(2′H)-pyrimidine]-8-carboxylate]",24 µM
8,"CC(=O)c1ccc2c(c1)CC1(C(=O)NC(=O)NC1=O)[C@H]1[C@H](C)O[C@H](C)CN21 (racemic) [Example 18, 8-Acetyl-1,2,4,4a-tetrahydro-2,4-dimethylspiro[[1,4]oxazino[4,3-a]quinoline-5(6H),5′(2H)-pyrimidine)-2′,4′,6′(1′H,3′H)-trione]",8.4 µM
